Results: patent publication US20120029187A1, “HALOALKYLSULFONANILIDE DERIVATIVE” (Nissan Chemical Industries, Ltd., priority 2009, published 2012)

Legend:
Assay type in all cases: in vivo
[1] = system: barnyardgrass; assay: Test Example 1: herbicidal effects in preemergence treatment under submerged conditions; conditions: dose 2.52 g/a
From the text: (§1) Test on the Herbicidal Effects in Preemergence Treatment on Weeds Under Submerged Conditions
(§2) Alluvial soil was put in 1/30000-are styrol cups and admixed with water so that it was submerged at a depth of 4 cm. In each cup, seeds of barnyardgrass, bulrush and ducksalad were sown together, and rice seedlings at the 2.5-leaf stage were transplanted. On the same day as the seeding, emulsifiable concentrates containing compounds of the present invention formulated in accordance with Formulation Example 2 were applied to the water surfaces at predetermined doses after diluted with water. The cups were placed in a greenhouse at 25 to 30° C. to grow the plants. Three weeks after the application, the herbicidal effects against various plants were determined on the following evaluation scale.
(§3) 5 mortality of 90% or above (nearly complete death)
(§4) 4 mortality of at least 70% and less than 90%
(§5) 3 mortality of at least 40% and less than 70%
(§6) 2 mortality of at least 20% and less than 40%
(§7) 1 mortality of at least 5% and less than 20%
(§8) 0 mortality of less than 5% (almost ineffective)
(§9) A: barnyardgrass, B: bulrush, C: ducksalad, D: large crabgrass, E: giant foxtail, F: wild oat, G: water foxtail, H: Italian ryegrass, I: velvetleaf, J: common ragweed, K: redroot pigweed, L: common lambsquater, M: posumbu knotweed, N: common chickweed, O: beadstraw, a: transplanted rice, b: corn, c: soybean, d: direct-seeded rice, e: wheat, f: sugar beet.
(§10) The doses (g/a) represents the amounts in g per 1 are (a) applied after adjustment of concentration adjustment.

[2] = system: bulrush; assay: as above; conditions: dose 2.52 g/a
From the text: as §1, §2, §3, §4, §5, §6, §7, §8, §9, §10

[3] = system: ducksalad; assay: as above; conditions: dose 2.52 g/a
From the text: as §1, §2, §3, §4, §5, §6, §7, §8, §9, §10

[4] = system: transplanted rice; assay: Test Example 1: preemergence treatment under submerged conditions, effect on crop; conditions: dose 2.52 g/a
From the text: as §1, §2, §3, §4, §5, §6, §7, §8, §9, §10

[5] = system: barnyardgrass; assay: Test Example 2: herbicidal effects during the vegetation period under submerged conditions; conditions: treatment during the vegetation period under submerged conditions; dose 2.52 g/a
Protocol: (§11) Test on the Herbicidal Effects on Weeds During the Vegetation Period Under Submerged Conditions
(§12) Alluvial soil was put in 1/30000-are styrol cups and admixed with water so that it was submerged at a depth of 4 cm. In each cup, seeds of barnyardgrass, bulrush and ducksalad were sown together, and the cups were placed in a greenhouse at 25 to 30° C. to grow the plants. When the barnyardgrass, bulrush and ducksalad reached the 1- or 2-leaf stage, emulsifiable concentrates containing compounds of the present invention formulated in accordance with Formulation Example 2 were applied to the water surfaces at predetermined doses after diluted with water. Three weeks after the application, the herbicidal effects against various plants were determined on the same evaluation scale as in Test Example 1.
as §9, §10

[6] = system: bulrush; assay: as above; conditions: treatment during the vegetation period under submerged conditions; dose 2.52 g/a
Protocol: as §11, §12, §9, §10

[7] = system: ducksalad; assay: as above; conditions: treatment during the vegetation period under submerged conditions; dose 2.52 g/a
Protocol: as §11, §12, §9, §10

[8] = system: Italian ryegrass; assay: Test Example 3: herbicidal effects in soil treatment; conditions: dose 3.2 g/a
From the text: (§13) Test on the Herbicidal Effects in Soil Treatment
(§14) Sterilized diluvial soil was put in plastic boxes with a length of 21 cm, a width of 13 cm and a depth of 7 cm, and seeds of barnyardgrass, large crabgrass, giant foxtail, wild oat, blackgrass, velvetleaf, common ragweed, redroot pigweed, common lambsquater, posumbu knotweed, common chickweed corn, soybean, rice, wheat and sugar beet were sown in spots and covered with an about 1.5 cm-thick soil layer. Emulsifiable concentrates containing compounds of the present invention formulated in accordance with Formulation Example 2 were uniformly applied to the soil surfaces at predetermined doses through a small sprayer after dilute with water. Three weeks after the application, the herbicidal effects against various plants were determined on the same evaluation scale as in Test Example 1.
as §9, §10

[9] = system: barnyardgrass; assay: as above; conditions: dose 3.2 g/a
From the text: as §13, §14, §9, §10

[10] = system: common chickweed; assay: as above; conditions: dose 3.2 g/a
From the text: as §13, §14, §9, §10

[11] = system: common lambsquater; assay: as above; conditions: dose 3.2 g/a
From the text: as §13, §14, §9, §10

[12] = system: common ragweed; assay: as above; conditions: dose 3.2 g/a
From the text: as §13, §14, §9, §10

[13] = system: giant foxtail; assay: as above; conditions: dose 3.2 g/a
From the text: as §13, §14, §9, §10

[14] = system: large crabgrass; assay: as above; conditions: dose 3.2 g/a
From the text: as §13, §14, §9, §10

[15] = system: posumbu knotweed; assay: as above; conditions: dose 3.2 g/a
From the text: as §13, §14, §9, §10

[16] = system: redroot pigweed; assay: as above; conditions: dose 3.2 g/a
From the text: as §13, §14, §9, §10

[17] = system: water foxtail; assay: as above; conditions: dose 3.2 g/a
From the text: as §13, §14, §9, §10

[18] = system: Italian ryegrass; assay: Test Example 4: herbicidal effect in foliage treatment; conditions: dose 3.2 g/a, three weeks after application
From the text: (§15) Test on the Herbicidal Effect in Foliage Treatment
as §14, with “chickweed,” for “chickweed”, “The boxes were placed in a greenhouse at 25 to 30° C. to grow the plants. After 14 days, emulsifiable” for “Emulsifiable”, “foliage” for “soil surfaces”, “diluted” for “dilute”
as §9, §10

[19] = system: barnyardgrass; assay: as above; conditions: dose 3.2 g/a, three weeks after application
From the text: as §15
as §14, with “chickweed,” for “chickweed”, “The boxes were placed in a greenhouse at 25 to 30° C. to grow the plants. After 14 days, emulsifiable” for “Emulsifiable”, “foliage” for “soil surfaces”, “diluted” for “dilute”
as §9, §10

[20] = system: beadstraw; assay: as above; conditions: dose 3.2 g/a, three weeks after application
From the text: as §15
as §14, with “chickweed,” for “chickweed”, “The boxes were placed in a greenhouse at 25 to 30° C. to grow the plants. After 14 days, emulsifiable” for “Emulsifiable”, “foliage” for “soil surfaces”, “diluted” for “dilute”
as §9, §10

[21] = system: common chickweed; assay: as above; conditions: dose 3.2 g/a, three weeks after application
From the text: as §15
as §14, with “chickweed,” for “chickweed”, “The boxes were placed in a greenhouse at 25 to 30° C. to grow the plants. After 14 days, emulsifiable” for “Emulsifiable”, “foliage” for “soil surfaces”, “diluted” for “dilute”
as §9, §10

[22] = system: common lambsquater; assay: as above; conditions: dose 3.2 g/a, three weeks after application
From the text: as §15
as §14, with “chickweed,” for “chickweed”, “The boxes were placed in a greenhouse at 25 to 30° C. to grow the plants. After 14 days, emulsifiable” for “Emulsifiable”, “foliage” for “soil surfaces”, “diluted” for “dilute”
as §9, §10

[23] = system: common ragweed; assay: as above; conditions: dose 3.2 g/a, three weeks after application
From the text: as §15
as §14, with “chickweed,” for “chickweed”, “The boxes were placed in a greenhouse at 25 to 30° C. to grow the plants. After 14 days, emulsifiable” for “Emulsifiable”, “foliage” for “soil surfaces”, “diluted” for “dilute”
as §9, §10

[24] = system: giant foxtail; assay: as above; conditions: dose 3.2 g/a, three weeks after application
From the text: as §15
as §14, with “chickweed,” for “chickweed”, “The boxes were placed in a greenhouse at 25 to 30° C. to grow the plants. After 14 days, emulsifiable” for “Emulsifiable”, “foliage” for “soil surfaces”, “diluted” for “dilute”
as §9, §10

[25] = system: large crabgrass; assay: as above; conditions: dose 3.2 g/a, three weeks after application
From the text: as §15
as §14, with “chickweed,” for “chickweed”, “The boxes were placed in a greenhouse at 25 to 30° C. to grow the plants. After 14 days, emulsifiable” for “Emulsifiable”, “foliage” for “soil surfaces”, “diluted” for “dilute”
as §9, §10

[26] = system: posumbu knotweed; assay: as above; conditions: dose 3.2 g/a, three weeks after application
From the text: as §15
as §14, with “chickweed,” for “chickweed”, “The boxes were placed in a greenhouse at 25 to 30° C. to grow the plants. After 14 days, emulsifiable” for “Emulsifiable”, “foliage” for “soil surfaces”, “diluted” for “dilute”
as §9, §10

[27] = system: redroot pigweed; assay: as above; conditions: dose 3.2 g/a, three weeks after application
From the text: as §15
as §14, with “chickweed,” for “chickweed”, “The boxes were placed in a greenhouse at 25 to 30° C. to grow the plants. After 14 days, emulsifiable” for “Emulsifiable”, “foliage” for “soil surfaces”, “diluted” for “dilute”
as §9, §10

[28] = system: velvetleaf; assay: as above; conditions: dose 3.2 g/a, three weeks after application
From the text: as §15
as §14, with “chickweed,” for “chickweed”, “The boxes were placed in a greenhouse at 25 to 30° C. to grow the plants. After 14 days, emulsifiable” for “Emulsifiable”, “foliage” for “soil surfaces”, “diluted” for “dilute”
as §9, §10

[29] = system: water foxtail; assay: as above; conditions: dose 3.2 g/a, three weeks after application
From the text: as §15
as §14, with “chickweed,” for “chickweed”, “The boxes were placed in a greenhouse at 25 to 30° C. to grow the plants. After 14 days, emulsifiable” for “Emulsifiable”, “foliage” for “soil surfaces”, “diluted” for “dilute”
as §9, §10

CC(C)COC(=O)N(c1ccccc1CN1COC(C)(C(F)(F)F)CC1=O)S(=O)(=O)C(F)(F)F (centres unmarked) [II-50]
A: barnyardgrass, herbicidal effect (evaluation scale 0-5) [1]: 5 (mortality of 90% or above (nearly complete death)) | B: bulrush, herbicidal effect (evaluation scale 0-5) [2]: 5 (mortality of 90% or above (nearly complete death)) | C: ducksalad, herbicidal effect (evaluation scale 0-5) [3]: 5 (mortality of 90% or above (nearly complete death)) | a: transplanted rice, effect on crop (evaluation scale 0-5) [4]: 0 (mortality of less than 5% (almost ineffective)) | A: barnyardgrass, herbicidal effect (evaluation scale 0-5) [5]: 5 (mortality of 90% or above (nearly complete death)) | B: bulrush, herbicidal effect (evaluation scale 0-5) [6]: 5 (mortality of 90% or above (nearly complete death)) | C: ducksalad, herbicidal effect (evaluation scale 0-5) [7]: 5 (mortality of 90% or above (nearly complete death)) | H: Italian ryegrass, herbicidal effect (evaluation scale 0-5) [8]: 0 (mortality of less than 5% (almost ineffective)) | A: barnyardgrass, herbicidal effect (evaluation scale 0-5) [9]: 4 (mortality of at least 70% and less than 90%) | N: common chickweed, herbicidal effect (evaluation scale 0-5) [10]: 3 (mortality of at least 40% and less than 70%) | L: common lambsquater, herbicidal effect (evaluation scale 0-5) [11]: 3 (mortality of at least 40% and less than 70%) | J: common ragweed, herbicidal effect (evaluation scale 0-5) [12]: 3 (mortality of at least 40% and less than 70%) | E: giant foxtail, herbicidal effect (evaluation scale 0-5) [13]: 2 (mortality of at least 20% and less than 40%) | D: large crabgrass, herbicidal effect (evaluation scale 0-5) [14]: 3 (mortality of at least 40% and less than 70%) | M: posumbu knotweed, herbicidal effect (evaluation scale 0-5) [15]: 0 (mortality of less than 5% (almost ineffective)) | K: redroot pigweed, herbicidal effect (evaluation scale 0-5) [16]: 0 (mortality of less than 5% (almost ineffective)) | G: water foxtail, herbicidal effect (evaluation scale 0-5) [17]: 4 (mortality of at least 70% and less than 90%) | H: Italian ryegrass, herbicidal effect [18]: 0 (mortality of less than 5% (almost ineffective)) | A: barnyardgrass, herbicidal effect [19]: 3 (mortality of at least 40% and less than 70%) | O: beadstraw, herbicidal effect [20]: 4 (mortality of at least 70% and less than 90%) | N: common chickweed, herbicidal effect [21]: 3 (mortality of at least 40% and less than 70%) | L: common lambsquater, herbicidal effect [22]: 2 (mortality of at least 20% and less than 40%) | J: common ragweed, herbicidal effect [23]: 3 (mortality of at least 40% and less than 70%) | E: giant foxtail, herbicidal effect [24]: 0 (mortality of less than 5% (almost ineffective)) | D: large crabgrass, herbicidal effect [25]: 0 (mortality of less than 5% (almost ineffective)) | M: posumbu knotweed, herbicidal effect [26]: 0 (mortality of less than 5% (almost ineffective)) | K: redroot pigweed, herbicidal effect [27]: 0 (mortality of less than 5% (almost ineffective)) | I: velvetleaf, herbicidal effect [28]: 0 (mortality of less than 5% (almost ineffective)) | G: water foxtail, herbicidal effect [29]: 1 (mortality of at least 5% and less than 20%)
